Experimental data as given in patent US20160318844A1, “PROSTACYCLIN COMPOUNDS, COMPOSITIONS AND METHODS OF USE THEREOF” (Insmed Incorporated, priority 2015, published 2016).
Entries after “also recorded” stand apart in the source; their conditions may differ. Like-named read-outs stand apart in the source and are kept apart here.

Columns and labels:
[1] = tested on: esterase; assay: Esterase mediated conversion of treprostinil compounds to treprostinil; type: in vitro ADME; conditions: esterase at 37° C., up to 1 hr
Description: A set of studies was conducted to determine the conversion kinetics to treprostinil of linear treprostinil compounds versus various branched treprostinil compounds. 0.4 mM of linear C8-TR or branched treprostinil compounds 2-dimethyl-1-propanyl-TR, 3,3-dimethyl-1-butanyl-TR, 2-ethyl-1-butanyl-TR, 5-nonanyl-TR, or 3-pentanyl-TR (see below for structures) were incubated with 0.2 U esterase at 37° C. for 1 hour, and the conversion (% of total) was calculated at 0.25, 0.5, 0.75, or 1 hour incubation time. • C8-TR (i.e., the compound of Formula (A) wherein R2=
The conversion is relative to the C8-TR compound and conversion was measured at 1 hr. post esterase incubation. • C8-TR (i.e., the compound of Formula (A) wherein R2=
Conversion was measured at 1 hr. post esterase incubation. • 4C7-TR (i.e., the compound of Formula (A) wherein R2=

[2] = biological target: T1, EP2 prostanoid receptor (Homo sapiens, UniProt P43116); assay: GloSensor cAMP assay in CHO-K1 cells co-transfected with the EP2 receptor; type: cell-based
T1 construct: host or cells: CHO-K1
Excerpt: cAMP is a second messenger involved in signal transduction of G-protein coupled receptors (GPCRs) acting through Gα-s and Gα-i proteins. Because the treprostinil receptor is a GPCR, the assay provides an indication of whether the respective prostacyclin compound (or metabolite thereof) binds its receptor and activates the GPCR cell signaling cascade. The GloSensorTM assay harnesses a genetically modified form of firefly luciferase into which a cAMP-binding protein moiety has been inserted. Upon binding of cAMP, a conformational change is induced leading to increased light output. The EP2 prostanoid receptor was cotransfected with the GioSensorm plasmid (Promega) into CHO-K cells as follows. CHO-K cells were harvested when the monoloayer was at 50-90% confluence. First, cells were washed with 5 mL PBS. […] The media was aspirated, and the cell pellet was resuspended in 10 mL of growth media. Cell number was determined using a hemacytometer. […] For small scale transfections of up to 20 wells, the pGLoSensor-22F cAMP plasmid (Promega, Cat #: E2301) (2 apg): […] Cat #: […] P2271) ratio was diluted to a final concentration of 12.6 ng/μL (total plasmid) in Opti-MEM I reduced-serum medium (Life Technologies, Cat #: 1985062). Next, 6 μL of FuGENE HD transfection reagent (Promega, Cat #: E2311) was added to 160 μL of diluted plasmid and mixed carefully by gentle pipetting. The complex was incubated at room temperature for 0 to 10 minutes, and then 8 μL of the complex was added per well of a 96 well white assay plate (Costar, Cat #: 3917) and gently mixed without disturbing the cell monolayer. […] Following incubation, cells were treated and analyzed. For larger scale transfections, the aforementioned steps were scaled up accordingly, and cells were frozen following the last incubation. In order to prepare frozen transfected CHO-K cells, the media was aspirated from culture flasks and cells were rinsed with 5 mL PBS. […] Cell number was determined using a hemacytometer. The media was aspirated, and the cell pellet was resuspended in freezing media (Millipore, cat #: S-002-SF) at 2.5×10^4 cells/vial. Transfected cells were incubated overnight at -80° C. before transfer to liquid nitrogen for long term storage. […] SH30071.03)). […] In preparation for cAMP measurement, the cells were equilibrated with the GloSensor cAMP reagent prior to treatment. For equilibration, the medium was carefully removed from the individual well. Next, 100 μL of equilibration medium ([…] of Glosensor Reagent stock solution (Promega, Cat #: E291), 10% FBS (Hydone, Cat #: SH30071.03) and 88% CO2 independent medium (Life Technologies, Cat #: 18045088)) was added per well of the 96-well plate, and added to the side of each well. The plate was then incubated for 2 hours at room temperature. A first pre-read measurement was taken using a microplate reader (MicroLumat Plus). Plates were incubated for an additional 10 minutes at room temperature, followed by a second pre-read measurement. […] Following treatment, each plate was read every 5 minutes for the duration of the assay using a microplate reader (MicroLumat Plus). In order to determine the fold change in cAMP relative to the control, the transfection efficiency was first determined by dividing the second pre-read measurement by the average of the corresponding pre-read measurements. Next, the normalized relative light units (RLUs) of the samples were determined by dividing the plate read measurement by the transfection efficiency. The fold change in cAMP relative to the control was then determined by dividing the normalized RLU of the samples by the normalized RLU of the control. The cAMP assay was validated using free treprostinil. […] Luminescence was then measured at room temperature. […] Nebulizer Aeroneb Pro (Aerogen) was used to nebulize treprostinil derivative compositions. Desired volume of the formulation (usually 3 mL) was loaded to the mesh head of the nebulizer. […]

[3] = tested on: CHO-K1 cells; assay: CHO-K1 cell proliferation assay (Presto Blue); conditions: Table 9, unformulated alkyl esters, (0.195 μM-25 μM), 48 hour incubation
Description: CHO-K1 cells were harvested when the cell monolayer was 50-90% confluent (use passage 4-11). Media was aspirated out of the flask, and cells were rinsed with 2 mL of F12 media. Next, 1 mL of pre-warmed (37° C.) 0.25% trypsin-EDTA (Life Technologies, Cat#: 25300054) was added, and cells were dislodged from the flask by tapping it on the side. Complete growth media (F12 (Life Technologies, Cat #: 31765092)+10% FBS (Hyclone, Cat #: SH30071.03)+1× Pen-Strep (Life Technologies, cat #15140-122) was then added at a volume of 10 mL. Cells were centrifuged at 250×g for 5 minutes at room temperature, and the media was aspirated. The cell pellet was resuspended in 10 mL complete growth media. Cell number was determined using a hemacytometer. Cells were then seeded at 2000 cells per well of a 96-well plate in 100 μL of complete growth media. The plate was incubated overnight at 37° C. and 5% CO2 in a water-jacketed incubator.
The next day, 80 μL of fresh complete media was added to each well, and CHO-K1 cells were challenged with treprostinil compound and composition treatments. The working solutions were prepared at 10× concentration, and following 2 fold serial dilutions, 20 μL aliquots were added per well to arrive at a final 1× concentration. Following a 48 hour incubation at 37° C. and 5% CO2 in a water-jacketed incubator, the inhibitory effect on cell proliferation was determined. Plates were analyzed using 20 μL of Presto Blue reagent (Life Technologies, cat #: A13262) per well. The reagent was mixed, and plates were incubated for 1 hour at 37° C. and 5% CO2 in a waterjacketed incubator. Plates were read using either a CytoFluor Series 4000 (PerSeptive BioSystems) or Synergy Neo microplate reader (BioTek) with emission λ: 590 nm and excitation λ: 560 nm. […]
CHO-K1 cells were challenged with treprostinil alkyl esters, i.e., TR compounds of Formula (A), having the following R2 groups: […]
C2, C3, C4, C5, C6, C8, C10 or C12 straight chain alkyl, at dosages ranging from 0.098 μM to 25 μM. Following a 48 hour incubation period, the inhibitory effect on cell proliferation was determined.
Following a 72 hour incubation period, the inhibitory effect on cell proliferation was determined. Following a 48 hour incubation period, the inhibitory effect on cell proliferation was determined. […]

[4] = tested on: NR8383 cells; assay: NR8383 cell proliferation assay; type: cell-based, rat; conditions: Table 9, unformulated alkyl esters, (0.195 μM-25 μM), 72 hour incubation
Description: Rat alveolar NR8383 cells were harvested when the monolayer was 50-90% confluent (use passage 5-11). Because the NR8383 cells include both adherent and non-adherent cells, media was transferred to a 50 mL Falcon tube. To obtain the cells remaining in the flask, 2 mL of plain media was added, and the remaining cells were scraped out of the 75 cm^2 flask with a cell scraper and added to the 50 mL tube. […] SH30071.03)+1×Pen-Strep (Life Technologies, cat #: 15410-122)). Cell number was determined using a hemacytometer. […] Measurements and calculations were made as described above for the CHO-K1 cells. Rat alveolar NR8383 cells were challenged with the same treprostinil derivative compositions: […]

[5] = physchem; conditions: organic solvent or mixture, thermodynamic from solid
Description: Selected treprostinil derivatives were evaluated for the use in a metered dose inhaler (MDI).
5 mg of each treprostinil compound was added in a glass bottle. Specific amount of ethanol was added by weight. An MDI valve was crimped to each bottle, and HFA propellant added through the valve to the total volume of 5 mL. Compounds were allowed to dissolve for 24 hours at room temperature. The formulations were assessed visually for solubility. The goal was to estimate the minimum ethanol concentration required to solubilize each compound in propellant.
Soluble samples presented as clear and colorless solutions. […] Non-soluble samples had white precipitate or crystals formed. Ethanol was added as a solubility aid.

T1 sequence (P43116 whole entry): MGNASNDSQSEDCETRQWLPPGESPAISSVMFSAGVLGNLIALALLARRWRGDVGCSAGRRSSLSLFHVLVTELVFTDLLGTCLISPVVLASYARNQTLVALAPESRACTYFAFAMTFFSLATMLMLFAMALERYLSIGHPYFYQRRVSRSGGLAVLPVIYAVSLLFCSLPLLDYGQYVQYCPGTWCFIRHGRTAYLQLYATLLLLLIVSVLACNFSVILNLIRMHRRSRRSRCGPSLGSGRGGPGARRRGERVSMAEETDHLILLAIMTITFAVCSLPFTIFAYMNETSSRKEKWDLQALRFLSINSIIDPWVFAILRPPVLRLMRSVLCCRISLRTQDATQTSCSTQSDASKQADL

CCCCCC[C@@H](C)OC(=O)COc1cccc2c1C[C@H]1C[C@@H](O)[C@H](CC[C@@H](O)CCCCC)[C@H]1C2 [(R)-2C8-TR]
conversion rate compared with other compound [1]: no significant difference

CCCCC[C@H](O)CC[C@@H]1[C@H]2Cc3cccc(OCC(=O)OCC)c3C[C@H]2C[C@H]1O [Compound C2-TR, treprostinil ethyl ester]
EC50 ([2]; 4.5 hr incubation time, read-out: EC50 (μM) 4.5 hr): 1.84 µM | EC50 ([2]; 6.0 hr incubation time, read-out: EC50 (μM) 6.0 hr): 1.68 µM | EC50 ([2]; 8.0 hr incubation time, read-out: EC50 (μM) 8.0 hr): 1.65 µM | EC50 ([2]; EC50 (μM) 0.5 hr, 0.5 hr incubation time): 2.43 µM | EC50 ([2]; EC50 (μM) 1.0 hr, 1.0 hr incubation time): 2.27 µM | EC50 ([2]; EC50 (μM) 2.0 hr, 2.0 hr incubation time): 1.75 µM | EC50 ([2]; EC50 (μM) 3.0 hr, 3.0 hr incubation time): 1.81 µM | EC50 ([2]; EC50 (μM) 4.0 hr, 4.0 hr incubation time): 1.88 µM | EC50 ([2]; EC50 (μM) 5.0 hr, 5.0 hr incubation time): 1.91 µM | EC50 ([2]; EC50 (μM) 7.0 hr, 7.0 hr incubation time): 1.71 µM | Effect on cell proliferation, CHO-K1 Cells: detectable cell inhibition [3]: No detectable cell inhibition | Effect on cell proliferation, NR8383 Cells: detectable cell inhibition [4]: No detectable cell inhibition

CCCCC[C@H](O)CC[C@@H]1[C@H]2Cc3cccc(OCC(=O)OC(CCC)CCC)c3C[C@H]2C[C@H]1O [Compound 4C7-TR]
conversion rate compared with other compound [1]: slower conversion rate than the linear compound C-TR

CCCCC[C@H](O)CC[C@@H]1[C@H]2Cc3cccc(OCC(=O)OCCCC)c3C[C@H]2C[C@H]1O [Compound C4-TR]
Effect on cell proliferation, CHO-K1 Cells: detectable cell inhibition [3]: No detectable cell inhibition | Effect on cell proliferation, NR8383 Cells: detectable cell inhibition [4]: No detectable cell inhibition

CCCCCC[C@H](C)OC(=O)COc1cccc2c1C[C@H]1C[C@@H](O)[C@H](CC[C@@H](O)CCCCC)[C@H]1C2 [(S)-2C8-TR]
conversion rate compared with other compound [1]: no significant difference

CCCCC[C@H](O)CC[C@@H]1[C@H]2Cc3cccc(OCC(=O)OC(CCC)CCCC)c3C[C@H]2C[C@H]1O (stereo partly shown) [Compound 4C8-TR]
conversion rate compared with other compound [1]: slower conversion rate than the linear compound C-TR; also recorded: slower conversion rate than the symmetrical compounds (4C7-TR and 5C9-TR)

CCCCCCOC(=O)COc1cccc2c1C[C@H]1C[C@@H](O)[C@H](CC[C@@H](O)CCCCC)[C@H]1C2 [Compound C6-TR]
Effect on cell proliferation, CHO-K1 Cells: detectable cell inhibition [3]: No detectable cell inhibition | Effect on cell proliferation, NR8383 Cells: detectable cell inhibition [4]: No detectable cell inhibition

CCCCC[C@H](O)CC[C@@H]1[C@H]2Cc3cccc(OCC(=O)OC(CCCC)CCCC)c3C[C@H]2C[C@H]1O [Compound 5C9-TR, 5-nonanyl-treprostinil]
change of potency with incubation time ([2]; cAMP dose response curves, 0.5 hr to 8 hr): increases with incubation time | ranking of activity ([2]; kinetic profile at 10 μM and 5 μM): C12-TR>C14-TR>5-nonanyl-TR>C16-TR | solubility at 24 h ([5]; Solubility in HFA-134a with added ethanol): < 1000 µg/mL | solubility at 24 h ([5]; Solubility in HFA-227 with added ethanol): > 1000 µg/mL | conversion rate compared with other compound [1]: slower conversion rate than the linear compound C-TR | conversion rate compared with other compound ([1]; listed as 5-nonanyl-TR): slower conversion rate than linear C8-TR

CCCCC[C@H](O)CC[C@@H]1[C@H]2Cc3cccc(OCC(=O)OCCC)c3C[C@H]2C[C@H]1O [Compound C3-TR]
Effect on cell proliferation, CHO-K1 Cells: detectable cell inhibition [3]: No detectable cell inhibition | Effect on cell proliferation, NR8383 Cells: detectable cell inhibition [4]: No detectable cell inhibition
